According to patent US20240343762A1, “USE OF PROTON PUMP MODULATOR IN PREPARING REAGENT” (SHANGHAI QUIETD BIOTECHNOLOGY CO. LTD., priority 2021, published 2024):
Ends that are not written are not given here.

Tests used:
[1] = test system: hippocampal CA1 pyramidal neurons; assay: Whole-cell patch-clamp recording of spontaneous excitatory postsynaptic current (sEPSC) in hippocampus brain slice; format: cell-based, mouse; settings: sEPSC at -70 mV, perfusion for 5 min; 5 μM in Embodiment 3
Protocol: 0.1-0.15 ml of 20% ethyl carbamate was injected into the abdominal cavity of a C57 mouse of 2 to 3 months old for anesthesia; a head was quickly cut, and brain tissues were stripped and put into artificial cerebrospinal fluid (ACSF) ice-water mixed liquid into which mixed gas (95% O2 and 5% CO2) was introduced in advance, and stood for 2 min; the ACSF included the following components: […] of NaCl, […] of KCl, 0.12 mM of NaH2PO4, 0.25 mM of CaCl2), 0.12 mM of MgCl2, 25 mM of NaHCO3 and 11 mM of glucose. A hippocampus coronal brain slice of 350 μm was cut by a vibration slicer. The hippocampus coronal brain slice was placed into the ACSF at room temperature for more than 30 min for recovery, and then the brain slice was put into a record slot; continuous perfusing was performed at a speed of 2 to 2.5 ml/min by the ACSF into which the mixed gas was introduced; blind-binding sealing was performed on hippocampus CA1 pyramidal neuron under an Olympic BX51 upright microscope; whole-cell patch-clamp was performed by an Axon700B amplifier and a 1550B digital-to-analog converter; spontaneous excitatory postsynaptic current (sEPSC) of the pyramidal neuron was recorded by a voltage clamp under the clamp voltage of −70 mV; after recording for 5 min, synthetic polypeptides such as 5 μM QD202 or QD202 N′-1, C′-1 and C′-2 for 5 min; and then perfusing and flushing were performed for 10 min by the ACSF. The recorded data was analyzed by Minianalysis software. […]

[2] = molecular target: T1, ATP6V1B2 protein of mouse brain hippocampus tissue (endogenous) (mouse, UniProt P62814 1-511); assay: immunoprecipitation with biotin antibody from mouse hippocampus lysate, SDS-PAGE, mass spectrometry
T1 construct: Endogenous protein in tissue lysate; also called band of about 55 kDa
T1 sequence (P62814 whole entry): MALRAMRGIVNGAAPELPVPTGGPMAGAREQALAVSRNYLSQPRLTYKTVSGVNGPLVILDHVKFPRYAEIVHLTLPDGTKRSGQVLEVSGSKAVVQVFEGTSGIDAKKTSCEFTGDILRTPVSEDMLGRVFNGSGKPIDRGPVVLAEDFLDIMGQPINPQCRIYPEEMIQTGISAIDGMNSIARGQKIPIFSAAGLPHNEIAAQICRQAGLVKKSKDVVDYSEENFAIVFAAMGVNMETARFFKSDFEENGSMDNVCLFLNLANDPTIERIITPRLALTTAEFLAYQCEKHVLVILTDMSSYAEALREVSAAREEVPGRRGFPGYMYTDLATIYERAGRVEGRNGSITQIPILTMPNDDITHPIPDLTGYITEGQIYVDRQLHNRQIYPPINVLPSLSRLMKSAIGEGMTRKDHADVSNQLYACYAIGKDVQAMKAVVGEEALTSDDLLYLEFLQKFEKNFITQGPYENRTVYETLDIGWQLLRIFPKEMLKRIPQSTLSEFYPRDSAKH

Molecule	spontaneous excitatory synaptic transmitter release of hippocampal CA1 neurons [1]	binding result [2]
QD202 C′-1: polypeptide of SEQ ID NO. 3; QD202 with one amino acid removed at the C end (YGRKKRRQRRRSPVDVVC; QD202 C -1)	effect similar to that of QD202 can still be observed	
QD202 C′-2: polypeptide of SEQ ID NO. 4; QD202 with two amino acids removed at the C end (YGRKKRRQRRRSPVDVV; QD202 C -2)	effect similar to that of QD202 cannot be observed	
QD202 N′-1: polypeptide of SEQ ID NO. 2; QD202 with one amino acid removed at the N end (YGRKKRRQRRRPVDVVCS; QD202 N -1)	effect similar to that of QD202 cannot be observed	
YGRKKRRQRRRVCDSSVVP-biotin [Disordered control QD201 with a biotin label at the C' end]		no binding
